Source: patent publication US20110009351A1, “SCREENING ASSAY TO IDENTIFY CORRECTORS OF PROTEIN TRAFFICKING DEFECTS” (Traffick Therepeutics Inc., priority 2007, published 2011)
“Also recorded” adds a separate entry of the source. Structures can show the parent of a compound that is named as a salt.

Key:
F508del CFTR = molecular target: T1, F508del CFTR (Homo sapiens, UniProt P13569, DEL508-508); test: YFP fluorescence quenching functional assay (iodide influx), HEK293 cells with F508del CFTR and halide sensitive YFP; assay type: cell-based; details: 10 μM, 24 h
T1 construct: expressed in transfected cells; host or cells: HEK293 Griptite cells stably expressing F508del CFTR, transiently transfected with halide-sensitive eYFP
Method in brief: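 HEK293 Griptite cells stably expressing F508del CFTR, transiently transfected with halide-sensitive eYFP, treated 24 h with 10 μM compound in triplicate, then stimulated 20 min with 25 μM forskolin, 45 μM IBMX and 50 μM genistein. YFP quench after 50 mM iodide imaged 15 times over 40 s on 150-300 cells/well.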

ΔF508-CFTR [1] = molecular target: T2, ΔF508-CFTR (Mus musculus, UniProt P26361, DEL508-508); test: ex vivo treatment of ileum from ΔF508-CFTR mice, Isc response to forskolin+genistein; details: 20 μM, 5-6 h ex vivo
T2 construct: from tissue; host or cells: ileal mucosa of homozygous ΔF508 mice (A11 ex vivo, A12 after gavage); salivary secretion in the living mouse (A13)
Description: Glafenine was tested ex vivo and in vivo using ileum from homozygous Δ508-CFTR mice (CFTR^tm1 Eur; van Doorninck et al., 1995) and wild-type littermates controls. Mice were 14-17 weeks old, weighed 24-30 g, and were genotyped by standard PCR methods using tail DNA. The mice were kept in a pathogen-free environment in the animal facility at McGill University and fed a high protein diet (SRM-A, Hope Farms, Woerden, NL) modified to contain pork instead of beef. All procedures followed Canadian Institutes of Health Research (CIHR) guidlines and were approved by the faculty Animal Care Committee. For ex vivo experiments, ileal mucosa was stripped of muscle and incubated in William's E-Glutamax medium supplemented with insulin (10 μg/ml), 100 U/ml penicillin, and 100 μg/ml streptomycin and dexamethasone (1.6 ng/ml) containing 0.1% DMSO (control) or DMSO containing glafenine for 5 h. The tissue was then rinsed repeatedly and mounted in Ussing chambers to measure […]. For in vivo experiments, mice were feed once per day by gavage with saline containing glafenine (50 mg/kg) or vehicle alone (0.1% DMSO). After 2 days of glafenine treatment the mice were euthanized under CO2, the intestine was dissected and the short circuit current was measured as described above.

[2] = clinical use; cited from earlier work
ΔF508-CFTR [3] = molecular target: ΔF508-CFTR (Homo sapiens, UniProt P13569, DEL508-508); test: immunoblot and densitometry of mature band C, BHK cells expressing ΔF508-CFTR; assay type: cell-based; design: which was then ligated into full length pNUT-CFTR linearized using Hpa1 and Pml1; expressed in transfected cells; details: 10 μM, 24 h
Description: Cell lysates were quantitated by Bradford assay (BioRad) and separated by SDS-PAGE (6% polyacrylamide gels) and analyzed by Western blotting. Western blots were blocked using 5% skimmed milk in PBS, then probed overnight at 4° C. with a primary anti-CFTR antibody at a dilution of 1:1000 monoclonal mouse antibody (clone M3A7, Chemicon). The blots were washed four times in PBS before the addition of the secondary HRP-conjugated anti-mouse antibody, at a dilution of 1:5000 (Amersham) for one hour at room temperature. The blots were washed five times in PBS and probed for chemiluminescence (Pierce). All samples were run with equal protein loading as determined using the Bradford assay (Biorad). Densitometry of the immunoblots was performed using the ImageJ program (National Institutes of Health).
Total protein was quantified in cell lysates using the Bradford assay (BioRad, Hercules, Calif.), separated using SDS-PAGE (6% polyacrylamide gels), and analyzed by Western blotting as described previously (Robert et al., 2007). Western blots were blocked with 5% skimmed milk in PBS and probed overnight at 4° C. with a monoclonal primary anti-CFTR antibody (clone M3A7, Chemicon, Temecula, Calif.) diluted 1:1000. The blots were washed four times in PBS before adding the secondary HRP-conjugated anti-mouse antibody at a dilution of 1:5000 (Amersham, Piscataway, N.J.) for one hour at room temperature, then washed again five times in PBS and visualized using chemiluminescence (Pierce, Rockford, Ill.). The relative intensity of each CFTR glycoform (band B or band C) was estimated by densitometry using the ImageJ software and reported as a percentage of the total CFTR in the same lane (i.e. B+C).

T1 sequence (P13569 with tags, fused parts or gaps DEL508-508): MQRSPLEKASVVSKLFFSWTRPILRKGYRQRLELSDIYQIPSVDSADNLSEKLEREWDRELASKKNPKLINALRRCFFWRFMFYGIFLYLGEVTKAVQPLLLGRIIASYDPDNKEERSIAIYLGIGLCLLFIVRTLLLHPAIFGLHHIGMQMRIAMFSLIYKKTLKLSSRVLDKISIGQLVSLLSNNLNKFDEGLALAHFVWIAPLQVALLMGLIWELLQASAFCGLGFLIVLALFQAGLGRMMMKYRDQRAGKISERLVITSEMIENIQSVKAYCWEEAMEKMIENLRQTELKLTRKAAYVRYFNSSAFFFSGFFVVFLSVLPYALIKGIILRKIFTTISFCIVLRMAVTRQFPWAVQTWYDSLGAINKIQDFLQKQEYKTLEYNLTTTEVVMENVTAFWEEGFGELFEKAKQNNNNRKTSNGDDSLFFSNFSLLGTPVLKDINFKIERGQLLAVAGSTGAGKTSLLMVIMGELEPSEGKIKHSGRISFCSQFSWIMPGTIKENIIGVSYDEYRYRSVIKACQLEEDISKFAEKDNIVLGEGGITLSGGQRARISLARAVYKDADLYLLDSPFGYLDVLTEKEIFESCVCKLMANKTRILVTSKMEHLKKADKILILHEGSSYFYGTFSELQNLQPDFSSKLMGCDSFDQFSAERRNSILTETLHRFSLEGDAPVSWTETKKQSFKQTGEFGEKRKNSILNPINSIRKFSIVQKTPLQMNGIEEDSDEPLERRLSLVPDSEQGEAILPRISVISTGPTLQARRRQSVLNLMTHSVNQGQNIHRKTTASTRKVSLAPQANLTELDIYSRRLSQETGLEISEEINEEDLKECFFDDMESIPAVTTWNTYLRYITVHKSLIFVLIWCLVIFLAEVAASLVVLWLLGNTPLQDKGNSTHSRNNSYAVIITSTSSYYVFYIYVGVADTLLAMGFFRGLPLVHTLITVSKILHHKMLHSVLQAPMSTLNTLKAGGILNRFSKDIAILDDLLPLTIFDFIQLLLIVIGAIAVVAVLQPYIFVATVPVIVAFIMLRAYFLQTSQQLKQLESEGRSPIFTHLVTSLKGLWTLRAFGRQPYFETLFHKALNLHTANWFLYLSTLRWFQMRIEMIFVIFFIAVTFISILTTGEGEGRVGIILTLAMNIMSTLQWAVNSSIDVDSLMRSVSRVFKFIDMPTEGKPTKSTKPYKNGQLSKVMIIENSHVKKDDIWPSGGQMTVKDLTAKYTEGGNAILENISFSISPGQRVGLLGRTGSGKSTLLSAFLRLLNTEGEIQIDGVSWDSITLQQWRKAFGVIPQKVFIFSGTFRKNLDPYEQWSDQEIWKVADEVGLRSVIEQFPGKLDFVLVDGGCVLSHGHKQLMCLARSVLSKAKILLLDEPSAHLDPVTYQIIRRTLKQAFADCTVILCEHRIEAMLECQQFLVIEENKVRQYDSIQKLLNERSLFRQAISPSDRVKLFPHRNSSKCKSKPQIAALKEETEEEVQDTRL
T2 sequence (P26361 with tags, fused parts or gaps DEL508-508): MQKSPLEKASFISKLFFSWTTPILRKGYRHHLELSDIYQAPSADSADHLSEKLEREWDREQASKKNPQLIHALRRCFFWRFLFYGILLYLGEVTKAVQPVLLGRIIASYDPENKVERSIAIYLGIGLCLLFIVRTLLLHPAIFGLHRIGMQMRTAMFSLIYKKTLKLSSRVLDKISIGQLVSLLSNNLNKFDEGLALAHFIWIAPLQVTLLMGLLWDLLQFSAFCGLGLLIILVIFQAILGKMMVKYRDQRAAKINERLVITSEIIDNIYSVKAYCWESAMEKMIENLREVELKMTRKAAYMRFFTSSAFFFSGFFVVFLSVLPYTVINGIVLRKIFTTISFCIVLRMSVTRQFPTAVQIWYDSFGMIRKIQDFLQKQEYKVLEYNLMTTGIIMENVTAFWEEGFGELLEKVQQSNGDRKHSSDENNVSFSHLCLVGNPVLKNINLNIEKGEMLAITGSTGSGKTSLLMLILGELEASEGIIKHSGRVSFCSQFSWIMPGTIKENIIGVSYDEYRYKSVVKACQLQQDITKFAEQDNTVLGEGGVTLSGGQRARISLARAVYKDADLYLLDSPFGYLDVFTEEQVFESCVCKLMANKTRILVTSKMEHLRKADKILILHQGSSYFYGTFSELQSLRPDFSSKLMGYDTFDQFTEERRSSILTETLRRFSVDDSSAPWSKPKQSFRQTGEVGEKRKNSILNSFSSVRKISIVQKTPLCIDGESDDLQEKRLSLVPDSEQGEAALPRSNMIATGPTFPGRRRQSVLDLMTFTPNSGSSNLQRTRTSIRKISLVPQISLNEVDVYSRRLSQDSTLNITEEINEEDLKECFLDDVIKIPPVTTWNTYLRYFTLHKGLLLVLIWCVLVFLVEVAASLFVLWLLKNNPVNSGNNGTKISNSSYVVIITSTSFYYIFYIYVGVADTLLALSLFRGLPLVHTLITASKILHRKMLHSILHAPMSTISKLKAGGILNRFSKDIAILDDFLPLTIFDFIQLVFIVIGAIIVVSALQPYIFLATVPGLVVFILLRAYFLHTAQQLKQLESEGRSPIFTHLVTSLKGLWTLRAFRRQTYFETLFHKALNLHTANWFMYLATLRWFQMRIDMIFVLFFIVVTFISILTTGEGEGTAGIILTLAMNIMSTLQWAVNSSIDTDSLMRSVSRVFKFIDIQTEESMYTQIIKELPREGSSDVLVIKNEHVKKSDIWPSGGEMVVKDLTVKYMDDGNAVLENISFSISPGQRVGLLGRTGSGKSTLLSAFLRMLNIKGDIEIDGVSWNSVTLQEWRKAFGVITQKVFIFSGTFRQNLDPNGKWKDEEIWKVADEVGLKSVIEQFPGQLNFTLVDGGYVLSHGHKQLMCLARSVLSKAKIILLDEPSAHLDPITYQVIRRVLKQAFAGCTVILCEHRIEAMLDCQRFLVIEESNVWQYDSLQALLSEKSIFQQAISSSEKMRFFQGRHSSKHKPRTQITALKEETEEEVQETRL
Sequence of ΔF508-CFTR (Homo sapiens, UniProt P13569, DEL508-508) (P13569 with tags, fused parts or gaps DEL508-508): as the sequence (P13569 with tags, fused parts or gaps DEL508-508) above

SMILES: O=C(OCC(O)CO)c1ccccc1Nc1ccnc2cc(Cl)ccc12 (stereo not shown) [Glafenine hydrochloride, 2-[(7-chloro-4-quinolinyl)amino]benzoic acid 2,3-dihydroxypropyl ester]
- functional correction in YFP quenching assay (F508del CFTR): test positive in each case; also recorded: enhanced the cAMP-stimulated iodide influx
- remaining activity at 10 µM (F508del CFTR; HEK293, nc = 100% pc = 69.2, read-out: % YFP quench): 80%
- forskolin+genistein-stimulated current versus vehicle alone (ΔF508-CFTR [1]): ~12 fold
- restoration of the secretory response observed in wild-type mice (ΔF508-CFTR [1]): ~46% and ≈ 46%
- concentration achieved clinically in plasma [2]: 10 µM
- band C glycoform as share of the CFTR signal (band B+band C) (ΔF508-CFTR [3]): approximately 38%
- increase of band C glycoform compared to untreated control (ΔF508-CFTR [3]): 28.4%
